In publication PMC10509784 (RSC Advances, 2023):
Where two headings read alike, the source gives them in different places.

What was measured:
Assay type in all cases: cell-based
Wi-38 = experiment: MTT cytotoxicity on normal fibroblasts; details: Homo sapiens, WI-38, read-out: Wi-38 IC50
MDA-MB 231 = experiment: MTT cytotoxicity on MDA-MB 231 breast cancer cells; details: Homo sapiens, MDA-MB-231, read-out: MDA-MB 231 IC50
MCF-7 = experiment: MTT cytotoxicity on MCF-7 breast cancer cells
BAX [1] = experiment: BAX expression in treated MCF-7 cells; details: for Relative fold change in BAX expression: MCF-7, mean ± SEM; for overexpression of apoptosis regulator BAX: tested cancer cell lines, MCF-7 and MDA-MB 231
P53 [2] = experiment: Quantitative detection of P53 expression in treated MCF-7 cells; details: MCF-7, vs control, mean ± SEM
Bcl-2 [3] = experiment: Bcl-2 expression in treated MCF-7 cells; details: for Relative fold change in Bcl-2 expression: MCF-7, mean ± SEM; for diminished levels of Bcl-2: tested cancer cell lines, MCF-7 and MDA-MB 231
caspase 3/7 [4] = experiment: Caspase 3/7 activation assay in MCF-7 cells; details: for Relative fold activation of caspase 3/7: MCF-7 treated with IC50, mean ± SEM; for activation of caspase 3/7: treated breast cancer cell lines (MCF-7 and MDA-MB 231), IC50s
BAX [5] = experiment: BAX expression in treated MDA-MB 231 cells; details: MDA-MB 231, mean ± SEM
caspase 3/7 [6] = experiment: Caspase 3/7 activation assay in MDA-MB 231 cells; details: MDA-MB 231 treated with IC50, mean ± SEM
P53 [7] = experiment: Quantitative detection of P53 expression in treated MDA-MB 231 cells; details: MDA-MB 231, vs control, mean ± SEM
Bcl-2 [8] = experiment: Bcl-2 expression in treated MDA-MB 231 cells; details: MDA-MB 231, mean ± SEM
[9] = Homo sapiens, MCF7, read-out: MCF-7 IC50, MTT, mean ± SEM
[10] = read-out: MCF-7 IC50, MTT, mean ± SEM

Structure (SMILES)	IC50 (Wi-38) [nM]	IC50 (MDA-MB 231) [nM]	IC50 (MCF-7; [9]) [nM]	Relative fold change in BAX expression (BAX [1]) [fold]	overexpression of apoptosis regulator BAX (BAX [1])	Relative fold change in the P53 expression (P53 [2]) [fold]	Relative fold change in Bcl-2 expression (Bcl-2 [3]) [fold]	diminished levels of Bcl-2 (Bcl-2 [3])	Relative fold activation of caspase 3/7 (caspase 3/7 [4]) [fold]	activation of caspase 3/7 (caspase 3/7 [4])	IC50 (MCF-7; [10]) [nM]	Relative fold change in BAX expression (BAX [5]) [fold]	Relative fold activation of caspase 3/7 (caspase 3/7 [6]) [fold]	Relative fold change in the P53 expression (P53 [7]) [fold]	Relative fold change in Bcl-2 expression (Bcl-2 [8]) [fold]	Relative fold change in the P53 expression (P53 [2]; listed as doxorubicin) [fold]	Relative fold change in the P53 expression (P53 [7]; listed as doxorubicin) [fold]
CCOC(=O)c1ccc(NC(=O)C(c2ccccc2)N(C(=O)C(F)(F)F)c2ccccc2)cc1 (centres unmarked) [Compound 2, Ethyl-4-(-phenyl-2-(2,2,2-trifluoro-N-phenylacetamido)acetamido)benzoate]	147 ± 20	472 ± 13	369 ± 14														
CCOC(=O)c1ccc(NC(=O)C(c2ccccc2)N(C(=O)c2ccccc2C)c2ccccc2)cc1 (centres unmarked) [Compound 3, Ethyl-4-(2-(2-methyl-N-phenylbenzamido)-2-phenylacetamido)benzoate]	1330 ± 84	306 ± 14	~80	2.448 ± 0.057	2.3–3.3 folds	4.110 ± 0.1014	0.217 ± 0.006	0.13–0.49 folds	3.470 ± 0.0485	2.6–4.1 folds	86 ± 16						
CCOC(=O)c1ccc(NC(=O)C(c2ccccc2)N(C(=O)c2ccccc2I)c2ccccc2)cc1 (centres unmarked) [Compound 4, Ethyl-4-(2-(2-iodo-N-phenylbenzamido)-2-phenylacetamido)benzoate]	418 ± 33	188 ± 44	96 ± 7	2.747 ± 0.1285	2.3–3.3 folds	4.137 ± 0.0407	0.233 ± 0.0017	0.13–0.49 folds	3.113 ± 0.1012	2.6–4.1 folds		2.338 ± 0.021	2.618 ± 0.1615	3.309 ± 0.110	0.496 ± 0.005		
CCOC(=O)c1ccc(NC(=O)C(c2ccccc2)N(C(=O)c2ccccc2[N+](=O)[O-])c2ccccc2)cc1 (centres unmarked) [Compound 5, Ethyl-4-(2-(2-nitro-N-phenylbenzamido)-2-phenylacetamido)benzoate]	570 ± 72	302 ± 24	229 ± 42														
CCOC(=O)c1ccc(NC(=O)C(c2ccccc2)N(C(=O)c2cc([N+](=O)[O-])cc([N+](=O)[O-])c2)c2ccccc2)cc1 (centres unmarked) [Compound 6, Ethyl-4-(2-(3,5-dinitro-N-phenylbenzamido)-2-phenylacetamido)benzoate]	538 ± 25	370 ± 94	143 ± 16														
CCOC(=O)c1ccc(N2C(=O)C(c3ccccc3)N(c3ccccc3)C2=O)cc1 (centres unmarked) [Compound 8, Ethyl-4-(2,5-dioxo-3,4-diphenylimidazolidin-1-yl)benzoate]	953 ± 37	146 ± 34	78 ± 72	3.195 ± 0.082	2.3–3.3 folds	4.810 ± 0.1014	0.163 ± 0.0035	0.13–0.49 folds	3.763 ± 0.011	2.6–4.1 folds		2.479 ± 0.030	2.945 ± 0.0885	3.733 ± 0.023	0.454 ± 0.010		
CCOC(=O)c1ccc(NC(=O)C2(OC(=O)c3ccccc3C)CCCCC2)cc1 [Compound 9, 1-((4-(Ethoxycarbonyl)phenyl)carbamoyl)cyclohexyl-2-methylbenzoate]	608 ± 12	445 ± 4	440 ± 6														
CCOC(=O)c1ccc(NC(=O)C2(OC(=O)c3ccc(N=[N+]=[N-])cc3)CCCCC2)cc1 [Compound 10, 1-((4-(Ethoxycarbonyl)phenyl)carbamoyl)cyclohexyl-4-azidobenzoate]	505 ± 1	470 ± 12	439 ± 5														
CCOC(=O)c1ccc(NC(=O)C2(OC(=O)c3ccc([N+](=O)[O-])cc3)CCCCC2)cc1 [Compound 11, 1-((4-(Ethoxycarbonyl)phenyl)carbamoyl)cyclohexyl 4-nitrobenzoate]	516 ± 11	756 ± 175	591 ± 35														
CCOC(=O)c1ccc(NC(=O)C2(OC(=O)c3ccc(NS(=O)(=O)c4ccccc4)cc3)CCCCC2)cc1 [Compound 12, 1-((4-(Ethoxycarbonyl)phenyl)carbamoyl)cyclohexyl-4-(phenylsulfonamido)benzoate]	633 ± 1	135	65 ± 50	3.337 ± 0.1485	2.3–3.3 folds	5.168 ± 0.0676	0.129 ± 0.0027	0.13–0.49 folds	4.105 ± 0.0795	2.6–4.1 folds		2.683 ± 0.065	3.304 ± 0.0745	4.312 ± 0.075	0.376 ± 0.037		
CCOC(=O)c1ccc(NC(=O)C2(OC(=O)CNS(=O)(=O)c3ccccc3)CCCCC2)cc1 [Compound 13, Ethyl 4-(1-(2-(phenylsulfonamido)acetoxy)cyclohexanecarboxamido)benzoate]	590 ± 26	513 ± 66	142 ± 27														
O=C(O)OC1(C(=O)Nc2ccc(C(=O)O)cc2)CCCCC1 [Compound 15, 4-(1-(Carboxyoxy)cyclohexane-1-carboxamido)benzoic acid]	827 ± 4	261 ± 25	264 ± 159														
NNC(=O)c1ccc(NC(=O)C2(O)CCCCC2)cc1 [Compound 16, N-(4-(Hydrazinecarbonyl)phenyl)-1-hydroxycyclohexane-1-carboxamide]	3327 ± 32	1030 ± 36	968 ± 36														
O=C(NNC(=S)Nc1ccccc1)c1ccc(NC(=O)C2(O)CCCCC2)cc1 [Compound 17, 1-Hydroxy-N-(4-(2-(phenylcarbamothioyl)hydrazine-1-carbonyl)phenyl)cyclohexane-1-carboxamide]	1540 ± 122	518 ± 81	~80	3.042 ± 0.0365	2.3–3.3 folds	4.377 ± 0.144	0.201 ± 0.0075	0.13–0.49 folds	3.677 ± 0.0145	2.6–4.1 folds	82 ± 2						
COc1cccc2c1C(=O)c1c(O)c3c(c(O)c1C2=O)C[C@@](O)(C(=O)CO)C[C@@H]3O[C@H]1C[C@H](N)[C@H](O)[C@H](C)O1 [Doxorubicin, reference compound]	272 ± 53	2830 ± 173	478 ± 76	1.556 ± 0.054		2.148 ± 0.174	0.592 ± 0.031		1.881 ± 0.028			1.232 ± 0.019	1.272 ± 0.074	1.623 ± 0.122	0.798 ± 0.044	2.1	1.6
